Source: patent US12391679B2, “Benzamide-substituted bicyclic imidazo- and pyrazolo-fused -pyridine, -pyrimide, and -pyridazine compounds for treatment of inflammatory diseases” (ONCO3R Therapeutics BV, priority 2019, dated 2025)

Experiments:
SIK2 = molecular target: T1, SIK2 (Homo sapiens, UniProt Q9H0K1); test: ADP-Glo kinase assay, SIK2; assay type: biochemical
T1 construct: purchased ThermoFisher Scientific PV4792
Summary of the method: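 Each SIK isoform is incubated with substrate and ATP for 2 h at room temperature, after which residual ATP is depleted and the ADP formed is quantified by luminescence.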

[1] = system: LPS-induced TNFα in monocytes; test: Monocytes assay: LPS-triggered TNFα (ELISA); assay type: cell-based, human; conditions: LPS-triggered TNFα inhibition
Summary of the method: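 CD14+ monocytes were magnetically isolated from human buffy-coat PBMCs, preincubated with compound 1 h at 37 °C (0.2% DMSO), then stimulated with LPS at 200 ng/mL for 4 h. Supernatant TNFα was measured by luminescent sandwich ELISA; percentage inhibition was calculated against controls for each concentration.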

T1 sequence (Q9H0K1 whole entry): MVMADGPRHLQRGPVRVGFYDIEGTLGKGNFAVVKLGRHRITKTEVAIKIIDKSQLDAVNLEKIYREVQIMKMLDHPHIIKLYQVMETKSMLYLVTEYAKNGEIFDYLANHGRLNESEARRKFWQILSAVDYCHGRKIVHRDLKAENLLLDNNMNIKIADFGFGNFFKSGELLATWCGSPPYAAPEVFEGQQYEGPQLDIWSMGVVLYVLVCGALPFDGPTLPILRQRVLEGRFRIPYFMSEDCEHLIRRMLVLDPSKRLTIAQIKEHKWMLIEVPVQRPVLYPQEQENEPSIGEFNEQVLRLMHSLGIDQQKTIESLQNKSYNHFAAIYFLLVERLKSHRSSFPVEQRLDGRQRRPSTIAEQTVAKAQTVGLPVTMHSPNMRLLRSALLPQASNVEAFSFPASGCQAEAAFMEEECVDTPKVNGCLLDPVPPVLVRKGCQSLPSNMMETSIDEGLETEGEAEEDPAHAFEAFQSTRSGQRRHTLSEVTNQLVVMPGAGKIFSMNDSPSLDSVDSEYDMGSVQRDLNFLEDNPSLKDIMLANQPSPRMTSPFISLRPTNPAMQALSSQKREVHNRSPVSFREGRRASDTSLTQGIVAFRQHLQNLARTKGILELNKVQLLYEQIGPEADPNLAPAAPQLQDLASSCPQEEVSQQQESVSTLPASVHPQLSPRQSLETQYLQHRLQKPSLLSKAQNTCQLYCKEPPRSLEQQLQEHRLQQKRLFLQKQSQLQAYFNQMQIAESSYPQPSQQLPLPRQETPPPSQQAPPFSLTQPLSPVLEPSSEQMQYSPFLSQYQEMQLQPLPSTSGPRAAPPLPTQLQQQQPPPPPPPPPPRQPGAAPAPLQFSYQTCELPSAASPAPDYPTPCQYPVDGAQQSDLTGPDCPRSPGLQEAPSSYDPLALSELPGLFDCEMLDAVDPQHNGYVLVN

| Compound | IC50 (SIK2) | EC50 ([1]; Homo sapiens, Monocyte) | EC50 [1] |
| --- | --- | --- | --- |
| COc1cc(-c2cnc3cc(C(C)(O)C(F)(F)F)ccn23)cc(OC(F)F)c1C(=O)NC1CC1 (centres unmarked) [Cpd 129, N-cyclopropyl-2-(difluoromethoxy)-6-methoxy-4-[7-(2,2,2-trifluoro-1-hydroxy-1-methyl-ethyl)imidazo[1,2-a]pyridin-3-yl]benzamide] | > 500 nM | 100 to 1000 nM |  |
| COc1cc(-c2cnn3cc(C(C)(C)CO)ccc23)cc(OC(F)F)c1C(=O)N[C@@H]1C[C@@H]1F [Cpd 242, 2-(difluoromethoxy)-N-[(1R,2S)-2-fluorocyclopropyl]-4-[6-(2-hydroxy-1,1-dimethyl-ethyl)pyrazolo[1,5-a]pyridin-3-yl]-6-methoxy-benzamide] | > 500 nM | 0.1 to 100 nM |  |
| COc1cc(-c2cnc3cc(C(C)(C)C#N)ccn23)cc(OC(F)F)c1C(=O)N1CC(F)C1 [Cpd 96, 2-[3-[3-(difluoromethoxy)-4-(3-fluoroazetidine-1-carbonyl)-5-methoxy-phenyl]imidazo[1,2-a]pyridin-7-yl]-2-methyl-propanenitrile] | > 500 nM | 100 to 1000 nM |  |
| COc1cc(-c2cnc3cc(C(C)O)ccn23)cc(OC(F)F)c1C(=O)NC1CC1 (centres unmarked) [Cpd 140, N-cyclopropyl-2-(difluoromethoxy)-4-[7-(1-hydroxyethyl)imidazo[1,2-a]pyridin-3-yl]-6-methoxy-benzamide] | 100 to 500 nM | 100 to 1000 nM |  |
| COc1cc(-c2cnn3cc(C(C)(C)N)ccc23)cc(OC(F)F)c1C(=O)N[C@@H]1C[C@@H]1F [Cpd 256, 4-[6-(1-amino-1-methyl-ethyl)pyrazolo[1,5-a]pyridin-3-yl]-2-(difluoromethoxy)-N-[(1R,2S)-2-fluorocyclopropyl]-6-methoxy-benzamide] | > 500 nM | 100 to 1000 nM |  |
| COc1cc(-c2cnc3cc(C(C)(C)C#N)ccn23)cc(OC(F)F)c1C(=O)NCC1CC1 [Cpd 39, 4-[7-(1-cyano-1-methyl-ethyl)imidazo[1,2-a]pyridin-3-yl]-N-(cyclopropylmethyl)-2-(difluoromethoxy)-6-methoxy-benzamide] | > 500 nM | 100 to 1000 nM |  |
| COc1cc(-c2cnc3cc(C(C)(C)N)ccn23)cc(OC(F)F)c1C(=O)NC1CC1 [Cpd 106, 4-[7-(1-amino-1-methyl-ethyl)imidazo[1,2-a]pyridin-3-yl]-N-cyclopropyl-2-(difluoromethoxy)-6-methoxy-benzamide] | > 500 nM | 100 to 1000 nM |  |
| COc1cc(-c2cnc3cc(C4(F)COC4)ccn23)cc(OC(F)F)c1C(=O)NC1CC1 [Cpd 207, N-cyclopropyl-2-(difluoromethoxy)-4-[7-(3-fluorooxetan-3-yl)imidazo[1,2-a]pyridin-3-yl]-6-methoxy-benzamide] | 100 to 500 nM | 100 to 1000 nM |  |
| COc1cc(-c2cnc3cc(C4(C#N)CCOCC4)ccn23)cc(OC)c1C(=O)NCC(F)(F)F [Cpd 107, 4-[7-(4-cyanotetrahydropyran-4-yl)imidazo[1,2-a]pyridin-3-yl]-2,6-dimethoxy-N-(2,2,2-trifluoroethyl)benzamide] | > 500 nM | 100 to 1000 nM |  |
| COc1cc(-c2cnc3cc(C4(O)CCC4)ccn23)cc(OC(F)F)c1C(=O)NC1CC1 [Cpd 173, N-cyclopropyl-2-(difluoromethoxy)-4-[7-(1-hydroxycyclobutyl)imidazo[1,2-a]pyridin-3-yl]-6-methoxy-benzamide] | 100 to 500 nM | 100 to 1000 nM |  |
| COc1cc(-c2cnc3cc(C(C)(C)CO)ccn23)cc(OC(F)F)c1C(=O)NC1CC1 [Cpd 150, N-cyclopropyl-2-(difluoromethoxy)-4-[7-(2-hydroxy-1,1-dimethyl-ethyl)imidazo[1,2-a]pyridin-3-yl]-6-methoxy-benzamide] | > 500 nM | 100 to 1000 nM |  |
| COc1cc(-c2cnc3cc(C4(C#N)COC4)ccn23)cc(OC(F)F)c1C(=O)N[C@@H]1C[C@@H]1F [Cpd 130, 4-[7-(3-cyanooxetan-3-yl)imidazo[1,2-a]pyridin-3-yl]-2-(difluoromethoxy)-N-[(1R,2S)-2-fluorocyclopropyl]-6-methoxy-benzamide] | > 500 nM | 100 to 1000 nM |  |
| COc1cc(-c2cnc3cc(C4(O)CCC4)ccn23)cc(OC(F)F)c1C(=O)N[C@@H]1C[C@@H]1F [Cpd 205, 2-(difluoromethoxy)-N-[(1R,2S)-2-fluorocyclopropyl]-4-[7-(1-hydroxycyclobutyl)imidazo[1,2-a]pyridin-3-yl]-6-methoxy-benzamide] | 100 to 500 nM | 100 to 1000 nM |  |
| COc1cc(-c2cnn3cc(C(C)(C)CN4CCOCC4)ccc23)cc(OC(F)F)c1C(=O)N[C@@H]1C[C@@H]1F [Cpd 269, 2-(difluoromethoxy)-4-[6-(1,1-dimethyl-2-morpholino-ethyl)pyrazolo[1,5-a]pyridin-3-yl]-N-[(1R,2S)-2-fluorocyclopropyl]-6-methoxy-benzamide] | > 500 nM | 100 to 1000 nM |  |
| COc1cc(-c2cnc3cc([C@@](C)(C#N)CO)ccn23)cc(OC(F)F)c1C(=O)NC1CC1 (single isomer, unassigned) [Cpd 189, 4-[7-(1-cyano-2-hydroxy-1-methyl-ethyl)imidazo[1,2-a]pyridin-3-yl]-N-cyclopropyl-2-(difluoromethoxy)-6-methoxy-benzamide] | > 500 nM |  | 100 to 1000 nM |
| COc1cc(-c2cnc3cc(C(C)(C)O)ccn23)cc(OC(F)F)c1C(=O)NC1CC1 [Cpd 35, N-cyclopropyl-2-(difluoromethoxy)-4-[7-(1-hydroxy-1-methyl-ethyl)imidazo[1,2-a]pyridin-3-yl]-6-methoxy-benzamide] | > 500 nM | 100 to 1000 nM |  |
| CCC(C)(O)c1ccn2c(-c3cc(OC)c(C(=O)NC4CC4)c(OC(F)F)c3)cnc2c1 (centres unmarked) [Cpd 137, N-cyclopropyl-2-(difluoromethoxy)-4-[7-(1-hydroxy-1-methyl-propyl)imidazo[1,2-a]pyridin-3-yl]-6-methoxy-benzamide] | > 500 nM | 100 to 1000 nM |  |
| COc1cc(-c2cnc3cc(C4CCCN4C)ccn23)cc(OC(F)F)c1C(=O)NC1CC1 (centres unmarked) [Cpd 171, N-cyclopropyl-2-(difluoromethoxy)-6-methoxy-4-[7-(1-methylpyrrolidin-2-yl)imidazo[1,2-a]pyridin-3-yl]benzamide] | > 500 nM | 1000 to 5000 nM |  |
| COc1cc(-c2cnc3cc(C(C)(O)C4CC4)ccn23)cc(OC(F)F)c1C(=O)NC1CC1 (centres unmarked) [Cpd 138, N-cyclopropyl-4-[7-(1-cyclopropyl-1-hydroxy-ethyl)imidazo[1,2-a]pyridin-3-yl]-2-(difluoromethoxy)-6-methoxy-benzamide] | > 500 nM | 100 to 1000 nM |  |
| CCC(C)(C#N)c1ccn2c(-c3cc(OC)c(C(=O)NC4CC4)c(OC(F)F)c3)cnc2c1 (centres unmarked) [Cpd 27, 4-[7-(1-cyano-1-methyl-propyl)imidazo[1,2-a]pyridin-3-yl]-N-cyclopropyl-2-(difluoromethoxy)-6-methoxy-benzamide] | > 500 nM | 100 to 1000 nM |  |
| COc1cc(-c2cnn3cc(C4(C#N)CCOCC4)ccc23)cc(OC(F)F)c1C(=O)N[C@@H]1C[C@@H]1F [Cpd 243, 4-[6-(4-cyanotetrahydropyran-4-yl)pyrazolo[1,5-a]pyridin-3-yl]-2-(difluoromethoxy)-N-[(1R,2S)-2-fluorocyclopropyl]-6-methoxy-benzamide] | > 500 nM | 100 to 1000 nM |  |
| COc1cc(-c2cnc3cc(C4COC4)ccn23)cc(OC(F)F)c1C(=O)NC1CC1 [Cpd 174, N-cyclopropyl-2-(difluoromethoxy)-6-methoxy-4-[7-(oxetan-3-yl)imidazo[1,2-a]pyridin-3-yl]benzamide] | 10 to 100 nM | 100 to 1000 nM |  |
